Laboratory results reported in patent US12390477B2, “Ganaxolone for use in treating tuberous sclerosis complex and seizure disorders” (Immedica Pharma US Inc., priority 2021, dated 2025).

Legend:
CYP2C19 = CYP2C19 (Homo sapiens, UniProt P33261); settings: cited from earlier work
[1] = Human pharmacokinetic studies of ganaxolone and CBD; type: in vivo
Source text: Without wishing to be bound by any particular theory, the inventors believe that the results of the clinical study can be explained by a previously unknown and unexpected drug interaction between ganaxolone and CBD. This is unexpected because ganaxolone is metabolized by CYP3A4/5. Landmark et al. Epilepsia 2021 62:857-873. […] Accordingly, it was unexpected that ganaxolone plasma concentrations, tolerability and efficacy would be affected by concomitant CBD. […] Thus, without wishing to be bound by any particular theory or mechanism, the unexpected drug-drug interaction could be a pharmacodynamic interaction.

[2] = Phase 2 open-label TSC trial (Part A): ganaxolone plasma/serum concentration; type: in vivo, human
Experimental: (§1) Pharmacokinetics, Safety and tolerability were assessed.

[3] = tested on: UGT1A9, UGT2B7, CYP1A2, CYP2B6, CYP2C8, CYP2C9 or CYP2C19; settings: cited from earlier work
[4] = tested on: major motor seizures in CDD; experiment: Marigold phase 3 trial of ganaxolone in CDKL5 deficiency disorder: seizure frequency; type: in vivo, human
Source text: (§2) The Marigold Study was a phase 3 clinical trial of ganaxolone for the treatment of CDD. The trial met primary endpoint-median 28-day major motor seizure frequency reduction of 32.2 percent compared to 4.9 percent for placebo. […] The most frequent adverse event was somnolence.
(See, FIG. 10.) These effects are unlikely secondary to age or weight, which were balanced between the two groups.

CYP3A4/5 = settings: cited from earlier work
[5] = Marigold phase 3 trial of ganaxolone in CDD: safety and tolerability; type: in vivo, human; settings: CDD patients
Source text: as §2

TSC-associated seizures = experiment: Phase 2 open-label trial of adjunctive ganaxolone in TSC-related epilepsy (Part A): seizure frequency; type: in vivo, human
Experimental: A Phase 2 open-label 12 week trial of adjunctive ganavolone treatment (Part A) in tuberous sclerosis complex-related epilepsy followed by long-term treatment (Part B) was conducted. This was a multicenter study conducted at 7 sites in the United States.
The primary objectives were to assess preliminary safety and efficacy of ganavolone (GNX) as adjunctive therapy for the treatment of primary seizure types in patients with genetically- or clinically-confirmed TSC-related epilepsy through the end of the 12 week treatment period. The primary seizure types (focal motor seizures without impairment of consciousness or awareness, focal seizures with impairment of consciousness or awareness, focal seizures evolving to bilateral, tonic-clonic convulsive seizures, and generalized motor seizures including tonic-clonic, bilateral tonic, bilateral clonic, or atonic/drop seizures) are identified to be the most common, easily identifiable/countable by a parent/caregiver/legally authorized representative (LAR), and most consequential to the patient's quality of life.
(§3) This was an open label (OL) proof of concept study of adjunctive GNX treatment in patients with a confirmed clinical diagnosis of TSC and/or a mutation in either the TSC1 or TSC2 gene. The trial consisted of two parts: Part A consisted of a 4-week baseline period followed by a 12-week treatment period (4-week titration and 8-week maintenance). For patients not continuing in the OLE period (Part B), a 2-week taper period followed by a 2-week safety period followed. The main difference between Part A and Part B is the length of treatment, less frequent assessments, and the ability to alter drug doses (both GNX and other antiepileptic drug [AED] treatments which includes initiating and stopping other medications) based on investigator evaluation of the patient's clinical course during Part B. Patients with a seizure frequency reduction rate of ≥35% during the 12-week treatment period in Part A compared to baseline were eligible to continue into Part B (“OLE eligible”).
(§4) After meeting all eligibility criteria, approximately 30 patients aged 2 to 65 years (inclusive) with TSC-related epilepsy were enrolled to receive GNX for a total of 12 weeks (4 week titration, 8 week maintenance) in addition to their standard anti-seizure medication(s) (ASMs). Patients were titrated to 63 mg/kg/day (maximum 1800 mg/day) over 4 weeks, and then maintained at that dose for another 8 weeks. Patients who were not able to tolerate 63 mg/kg/day (or maximum 1800 mg/day) were eligible to be maintained on a lower dose after discussion with the medical monitor. A minimum dose of 33 mg/kg/day or 900 mg/day was generally required during the maintenance period.
Patients were required to complete a daily diary to determine GNX's effect on seizures. Days without seizures should also have been noted. Additional clinician and caregiver administered instruments were used to assess the efficacy of GNX in TSC and included: Caregiver Global Impression of Change (CGI-C)—Target Behavior and Clinical Global Impression—Improvement (CGI-I) caregiver and CGI-I clinician.
Ganaxolone was administered in increments of 15 mg/kg/day up to 63 mg/kg/day (maximum 1800 mg/day) given as an oral suspension with food. Patients weighing ≤28 kg were dosed on an mg/kg basis. Patients weighing >28 kg were dosed on a fixed regimen in increments of 450 mg/day up to 1800 mg/day.
Seizures: All seizure types and number of seizures were to be recorded daily in a diary. Days in which no seizures occur were also to be noted.
Primary Efficacy Endpoint: The primary efficacy endpoint was the percent change in 28-day primary seizure frequency through the end of the 12-week treatment period (4-week titration and 8-week maintenance) relative to the 4-week baseline. […]

[6] = Phase 2 open-label TSC trial (Part A): safety and tolerability, adverse events; type: in vivo, human
Source text: as §3, §4, §1
If the next dose was still not tolerated, the patient could drop back to the next lower dose step. A minimum dose of 33 mg/kg/day or 900 mg/day was generally required following the escalation period, during the maintenance period.

Sequence of CYP2C19 (P33261 whole entry): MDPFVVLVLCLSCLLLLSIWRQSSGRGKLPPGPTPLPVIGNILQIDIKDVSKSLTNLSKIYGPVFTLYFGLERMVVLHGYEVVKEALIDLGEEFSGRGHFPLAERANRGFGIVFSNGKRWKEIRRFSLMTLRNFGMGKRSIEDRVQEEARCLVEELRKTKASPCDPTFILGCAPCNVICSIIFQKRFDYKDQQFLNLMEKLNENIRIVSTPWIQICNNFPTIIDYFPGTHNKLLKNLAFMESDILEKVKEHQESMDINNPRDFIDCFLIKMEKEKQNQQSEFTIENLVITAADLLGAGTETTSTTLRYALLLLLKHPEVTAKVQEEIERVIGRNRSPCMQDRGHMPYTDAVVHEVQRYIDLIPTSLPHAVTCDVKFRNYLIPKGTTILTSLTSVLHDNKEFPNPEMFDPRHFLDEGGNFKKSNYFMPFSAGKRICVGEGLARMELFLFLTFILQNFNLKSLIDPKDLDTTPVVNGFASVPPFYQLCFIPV

C=C(C)[C@@H]1CCC(C)=C[C@H]1c1c(O)cc(CCCCC)cc1O [EPIDIOLEX, cannabidiol]
increase in plasma concentration of N-desmethylclobazam (CYP2C19; coadministration with clobazam (a CYP2C19 substrate)): 3 fold
effect on clobazam levels (CYP2C19; coadministration with clobazam): no effect

CC(=O)[C@H]1CC[C@H]2[C@@H]3CC[C@H]4C[C@](C)(O)CC[C@]4(C)[C@H]3CC[C@]12C [ganaxolone, 3α-hydroxy-3β-methyl-5α-pregnan-20-one]
pharmacokinetic drug-drug interaction of ganaxolone and CBD [1]: did not provide evidence of a pharmacokinetic drug-drug interaction
mean ganaxolone serum concentration in patients with somnolence-related adverse events relative to patients without ([2]; FIG. 3): higher
mean ganaxolone plasma concentration with concomitant cannabidiol vs without ([2]; FIG. 4): higher
ganaxolone plasma concentration in relation to concomitant cannabidiol dose ([2]; FIG. 5, n=11): higher doses of cannabidiol were associated with higher plasma concentrations of ganaxolone
metabolism by enzymes implicated in CBD interactions with other drugs [3]: not significantly metabolized
median 28-day major motor seizure frequency reduction ([4]; CDD patients, ganaxolone arm): 32.2%
efficacy in patients who experienced somnolence-related adverse events vs those who did not ([4]; ganaxolone treatment group (N=49), FIG. 10): reduced efficacy
metabolizing enzyme (CYP3A4/5): CYP3A4/5
discontinuation rate in the active treatment arm [5]: less than 5%
most frequent adverse event [5]: somnolence
overall tolerability [5]: generally well tolerated
median reduction in TSC-associated seizure frequency (TSC-associated seizures; 23 enrolled patients, 12-week treatment vs 4-week baseline): 16.6%
patients achieving ≥50% reduction in TSC-associated seizure frequency (TSC-associated seizures; all enrolled patients (n=23)): 30.4%
efficacy in patients receiving concomitant EPIDIOLEX (CBD) at 10 mg/kg/day or less (TSC-associated seizures; concomitant CBD 10 mg/kg/day or less): robust efficacy
suppression of seizure (efficacy) with concomitant CBD above 10 mg/kg vs no CBD or CBD at or below 10 mg/kg (TSC-associated seizures; concomitant CBD above 10 mg/kg): lower suppression of seizure
fraction of patients with robust reduction in TSC-associated seizures (TSC-associated seizures; including those on concomitant cannabidiol and everolimus): ⅓
median percent reduction in focal seizure frequencies (TSC-associated seizures; n=19): 25.2%
patients achieving ≥50% reduction in TSC-associated seizure frequency (TSC-associated seizures; patients that received concomitant cannabidiol (n=12)): 25%
patients achieving ≥50% reduction in TSC-associated seizure frequency (TSC-associated seizures; patients that received concomitant everolimus (n=11)): 36.4%
median percent reduction in TSC-associated seizures, no concomitant cannabidiol vs concomitant cannabidiol (TSC-associated seizures; patients without concomitant cannabidiol (n=11) compared with patients on cannabidiol): greater median percent reduction
patients that discontinued Part A, number ([6]; 23 enrolled): 6 patients
patients that discontinued Part A, percent ([6]; 23 enrolled): 26.1%
fatigue, number of patients reporting ([6]; 23 enrolled TSC patients): 3 patients
fatigue, percent of patients reporting ([6]; 23 enrolled TSC patients): 13.0%
overall tolerability ([6]; 23 enrolled TSC patients): generally well-tolerated
patients with seizure assessed by the principal investigator as treatment related ([6]; 23 enrolled TSC patients): One
sedation, number of patients reporting ([6]; 23 enrolled TSC patients): 3 patients
sedation, percent of patients reporting ([6]; 23 enrolled TSC patients): 13.0%
somnolence, number of patients reporting ([6]; 23 enrolled TSC patients): 10 patients
somnolence, percent of patients reporting ([6]; 23 enrolled TSC patients): 43.5%
somnolence-related adverse events (somnolence, sedation, fatigue and lethargy), number of patients ([6]; 23 enrolled TSC patients): 17 patients
ganaxolone tolerability issues with concomitant CBD above 10 mg/kg vs no CBD or CBD at or below 10 mg/kg ([6]; concomitant CBD above 10 mg/kg): greater ganaxolone tolerability issues
patients on concomitant cannabidiol experiencing somnolence-related adverse events ([6]; concomitant cannabidiol (n=12)): All patients
patients that discontinued Part A because of an adverse event ([6]; of the patients that discontinued): 4
